# Reference: PMC8270270, “Rosin Derivatives as a Platform for the Antiviral Drug Design” (Molecules, 2021)
# Where two headings read alike, the source gives them in different places.
# What was measured:
# A549 cell culture = assay: Cytotoxicity, colorimetric MTT assay; type: cell-based, human; settings: for Cytotoxicity (in words): A549, MTT assay; for IC50: Homo sapiens, read-out: Determined IC50
# Procedure: The cytotoxicity of compounds (I–V) was assessed on A549 cell culture using a colorimetric MTT assay. A549 cells were incubated for 24 h at 37 °C, 5% CO2 with solutions of the studied compounds at various concentrations. Next, the cell monolayer was washed, and MTT solution was added in a volume of 0.1 mL at a concentration of […]. After 1 h of MTT contact with the cells, the wells were washed, and the formed formazan crystals were dissolved in 0.1 mL of DMSO. The results were recorded at 560 nm on a CLARIOstar Plus plate photometer (BMG LABTECH, Ortenberg, Germany). The IC50 was calculated using GraphPad Prism 6.0.
# Bacillus subtilis = assay: Disco-diffuse method, antibacterial activity; type: cell-based; settings: for zone of inhibition at 1000 µg/mL / zone of inhibition at 5000 µg/mL / zone of inhibition at 10000 µg/mL / zone of inhibition at 25000 µg/mL / zone of inhibition at 50000 µg/mL / MIC: Bacillus subtilis; for zone of inhibition at 1000 µg/mL: compound concentration 1 mg/mL; for zone of inhibition at 1000 µg/mL / zone of inhibition at 5000 µg/mL / zone of inhibition at 10000 µg/mL / zone of inhibition at 25000 µg/mL / zone of inhibition at 50000 µg/mL: read-out: The Zone of Growth Inhibition; for zone of inhibition at 5000 µg/mL: compound concentration 5 mg/mL; for zone of inhibition at 10000 µg/mL: compound concentration 10 mg/mL; for zone of inhibition at 25000 µg/mL: compound concentration 25 mg/mL; for MIC: from disc diffusion, read-out: minimum inhibitory concentration
# Procedure: (§1) The determination of compounds (I, IV, VI–XI) effect concerning microorganisms was carried out using test strains of Escherichia coli, Bacillus subtilis, and Candida tropicalis. They are not only natural inhabitants of natural biocenoses but also a part of human microbiocenosis. Used microorganisms of bacteria were selected as representatives of the Gram-positive and Gram-negative human microbiota. The antibacterial activity of compounds (I, IV, VI–XI) was studied by the disco-diffuse method. The strain culture was transferred sterile from the mown agar into test tubes with 5 mL of nutrient medium to obtain a “night culture” 12–15 h before the experiment. Beef-extract agar (BEA) was used as a nutrient medium for the development of bacterial cells, and Sabouraud’s medium was used for yeast. Bacterial cultures were incubated in a thermostat at 37 °C, and yeast cultures at 32 °C. The melted BEA was poured sterile into Petri dishes (diameter 90 mm) and evenly distributed over the bottom of the dish, covered with a lid, and left on the table until it solidified completely. Next, the dishes with BEA were inoculated with a “lawn” by introducing a strain culture (suspension titer −1–2 × 10^8 CFU/mL) in an amount of 500 µL and evenly distributing it with a sterile spatula. The dishes were left for 60–90 min to dry the culture. Compounds (I, IV, VI–XI) were previously dissolved, and the sequential dilutions were applied to disks. Dimethyl sulfoxide (DMSO) was used as a solvent for the DAA. Water was used as a solvent for their potassium salts. […] This disk was impregnated with a solution of the test compound amounting to 100 μL and incubated in the dark for 24 h at 37 °C (Escherichia coli and Bacillus subtilis) and 48 h at 32 °C (Candida tropicalis). The solution diffuses, forming a concentration gradient of the test compound around the disc. After the incubation period, the inhibition zone or stimulation of microbial growth around the disk was measured in the experimental and control samples. A conclusion was made about the degree (bactericidal) toxicity of compounds. Solvent-treated disks (DMSO) were used as controls. The experiments were performed three times.
# Escherichia coli = assay: Disco-diffuse method, antibacterial activity; type: cell-based; settings: for zone of inhibition at 1000 µg/mL / zone of inhibition at 5000 µg/mL / zone of inhibition at 10000 µg/mL / zone of inhibition at 25000 µg/mL / zone of inhibition at 50000 µg/mL / MIC: Escherichia coli; for zone of inhibition at 1000 µg/mL: compound concentration 1 mg/mL; for zone of inhibition at 1000 µg/mL / zone of inhibition at 5000 µg/mL / zone of inhibition at 10000 µg/mL / zone of inhibition at 25000 µg/mL / zone of inhibition at 50000 µg/mL: read-out: The Zone of Growth Inhibition; for zone of inhibition at 5000 µg/mL: compound concentration 5 mg/mL; for zone of inhibition at 10000 µg/mL: compound concentration 10 mg/mL; for zone of inhibition at 25000 µg/mL: compound concentration 25 mg/mL; for MIC: from disc diffusion, read-out: minimum inhibitory concentration
# Procedure: as §1
# Candida tropicalis = assay: Disco-diffuse method, fungicidal activity; type: cell-based; settings: for zone of inhibition at 1000 µg/mL / zone of inhibition at 5000 µg/mL / zone of inhibition at 10000 µg/mL / zone of inhibition at 25000 µg/mL / zone of inhibition at 50000 µg/mL: Candida tropicalis, 48 h at 32 °C, read-out: The Zone of Growth Inhibition; for zone of inhibition at 1000 µg/mL: compound concentration 1 mg/mL; for zone of inhibition at 5000 µg/mL: compound concentration 5 mg/mL; for zone of inhibition at 10000 µg/mL: compound concentration 10 mg/mL; for zone of inhibition at 25000 µg/mL: compound concentration 25 mg/mL; for zone of inhibition at 50000 µg/mL: compound concentration 50 mg/mL
# Procedure: as §1
# [1] = test system: A/California/07/09 ((A)H1N1pdm09) viral strain; type: cell-based, influenza virus
# [2] = at the working concentrations used to assess antiviral activity
# [3] = compound concentration 50 mg/mL, 24 h at 37 °C
# [4] = A549, therapeutic scheme, 24 h after stimulation, working concentration
SMILES,Cytotoxicity (in words) (A549 cell culture),zone of inhibition at 1000 µg/mL (Bacillus subtilis; 24 h at 37 °C) [mm],zone of inhibition at 5000 µg/mL (Bacillus subtilis; 24 h at 37 °C) [mm],zone of inhibition at 10000 µg/mL (Bacillus subtilis; 24 h at 37 °C) [mm],zone of inhibition at 25000 µg/mL (Bacillus subtilis; 24 h at 37 °C) [mm],zone of inhibition at 50000 µg/mL (Bacillus subtilis; [3]) [mm],zone of inhibition at 1000 µg/mL (Escherichia coli; 24 h at 37 °C) [mm],zone of inhibition at 5000 µg/mL (Escherichia coli; 24 h at 37 °C) [mm],zone of inhibition at 10000 µg/mL (Escherichia coli; 24 h at 37 °C) [mm],zone of inhibition at 25000 µg/mL (Escherichia coli; 24 h at 37 °C) [mm],zone of inhibition at 50000 µg/mL (Escherichia coli; [3]) [mm],zone of inhibition at 1000 µg/mL (Candida tropicalis) [mm],zone of inhibition at 5000 µg/mL (Candida tropicalis) [mm],zone of inhibition at 10000 µg/mL (Candida tropicalis) [mm],zone of inhibition at 25000 µg/mL (Candida tropicalis) [mm],zone of inhibition at 50000 µg/mL (Candida tropicalis) [mm],"IC50 (A549 cell culture; A549, 24 h) [µg/mL]",Decrease in viable cells (A549 cell culture; [2]) [%],MIC (Bacillus subtilis; 1-50 mg/mL) [µg/mL],MIC (Escherichia coli; 1-50 mg/mL) [µg/mL],also measured
"CC(C)c1cc2c(cc1S(=O)(=O)O)C1(C)CCCC(C)(C(=O)O)C1CC2 (centres unmarked) [I, 12-sulfodehydroabietic acid]",weak toxicity,0,0,0,0,0,0,0,0,0,0,0,0,0,0,0,,,,,"IC50 (A549 cell culture; A549, 24 h incubation, MTT assay): > 518 µg/mL; Cell viability (in words) (A549 cell culture; [2]): did not cause a significant decrease in cell viability; Antibacterial activity (in words) (Bacillus subtilis; 1-50 mg/mL): did not show either antibacterial activity or fungicidal activity; Antibacterial activity (in words) (Escherichia coli; 1-50 mg/mL): did not show either antibacterial activity or fungicidal activity; Fungicidal activity (in words) (Candida tropicalis; 1-50 mg/mL): did not show either antibacterial activity or fungicidal activity; Antiviral activity (in words) ([1]; A549, in vitro, working concentration): did not show antiviral activity"
"CC(C)C1=CC2=CCC3C(C)(C(=O)[O-])CCCC3(C)C2CC1.[K+] (centres unmarked) [II, Potassium abietate]",highest cytotoxicity,,,,,,,,,,,,,,,,240,50,,,"Dose-dependent antiviral effect [1]: led to a decrease in the antiviral effect; Content of viral protein NP inside the cells (ELISA) [1, 4]: decrease in the content of the viral protein NP inside the cells; Viral load in supernatants obtained from cells (NP ELISA), vs control [1, 4]: slight decrease in the viral load"
"CC(C)C1=CC2=CC[C@@H]3[C@](C)(CCC[C@@]3(C)C(=O)O)[C@H]2CC1 [IX, Abietic acid]",,1 ± 0.15,2.1 ± 0.03,2 ± 0.05,4 ± 0.1,5 ± 1.04,0,1 ± 0.1,1 ± 0.1,2 ± 0.24,3 ± 0.14,0,0,0,1 ± 0.11,1 ± 0.15,,,1000,5000,
"CC(C)c1cc2c(cc1Br)C1(C)CCCC(C)(C(=O)[O-])C1CC2.[K+] (centres unmarked) [III, Potassium 12-bromodehydroabietate]",highest cytotoxicity,,,,,,,,,,,,,,,,140,50,,,"Content of viral protein NP inside the cells (ELISA) [1, 4]: decrease in the content of the viral protein NP inside the cells"
"CC(C)C1=CC2=CCC3C(C)(CO)CCCC3(C)C2CC1 (centres unmarked) [XI, Abietinol]",,1 ± 0.15,2.2 ± 0.05,2 ± 0.15,4 ± 0.12,4 ± 0.09,0,1 ± 0.1,1 ± 0.1,3.5 ± 0.21,5 ± 0.14,0,1 ± 0.1,2 ± 0.1,4 ± 0.25,4.2 ± 0.15,,,1000,5000,
"CC(C)c1cc2c(cc1Br)C1(C)CCCC(C)(C(=O)O)C1CC2 (centres unmarked) [X, 12-bromodehydroabietic acid]",,3.1 ± 0.25,9.5 ± 0.05,9.7 ± 0.04,10.5 ± 0.03,,0.9 ± 0.1,2 ± 0.07,7.6 ± 0.03,4.6 ± 0.05,,0,0,0,1.1 ± 0.24,1.9 ± 0.16,,,1000,1000,The Zone of Growth Inhibition (Bacillus subtilis; [3]): Does not diff; The Zone of Growth Inhibition (Escherichia coli; [3]): Does not diff
